Data on 21 molecules can be found in patent publication US8039490B2, “Benzoyl-piperidine derivatives as dual modulators of the 5-HT2A and D3 receptors” (Hoffmann-La Roche Inc., priority 2006, dated 2011).

Where “and” joins values, the source holds several entries; their conditions need not be identical. Equal entries are not always repeated.

Assay [1] deals with T1, human D3 dopamine receptor (Homo sapiens, UniProt P35462).
T1 construct: expressed in transfected cells; host or cells: HEK-293 EBNA cells (transient transfection), membrane preparation
T1 sequence (P35462 whole entry): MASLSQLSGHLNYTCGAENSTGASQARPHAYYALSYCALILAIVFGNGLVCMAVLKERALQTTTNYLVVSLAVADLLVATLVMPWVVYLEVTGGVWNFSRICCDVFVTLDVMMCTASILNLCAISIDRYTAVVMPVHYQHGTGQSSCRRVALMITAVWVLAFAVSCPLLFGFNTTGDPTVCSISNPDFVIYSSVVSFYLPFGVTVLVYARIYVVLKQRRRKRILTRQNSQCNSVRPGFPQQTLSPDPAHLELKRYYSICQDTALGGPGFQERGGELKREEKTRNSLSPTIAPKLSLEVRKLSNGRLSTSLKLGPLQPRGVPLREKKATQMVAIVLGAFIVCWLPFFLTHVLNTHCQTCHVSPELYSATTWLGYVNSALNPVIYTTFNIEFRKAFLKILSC
Briefly: Radioligand binding, human D3 receptor ([3H]-spiperone). The settings on record: first value of the cell; membranes of transfected HEK-293 EBNA cells, 0.5 nM [3H]-spiperone; read-out: Ki(nM) D3/5HT2A/D2: D3. How it is done: (§1) The cells were harvested 48 h post-transfection, washed three times with cold PBS and stored at −80° C. prior to use. The pellet was suspended in cold 50 mM Tris-HCl buffer containing 10 mM EDTA (pH 7.4) and homogenized with a Polytron (Kinematica AG, Basel, Switzerland) for 20-30 sec at 12.000 rpm. After centrifugation at 48.000×g for 30 min at 4° C., the pellet was resuspended in cold 10 mM Tris-HCl buffer containing 0.1 mM EDTA (pH 7.4), homogenized, and centrifuged as above. This pellet was further resuspended in a smaller volume of ice cold 10 mM Tris-HCl buffer containing 0.1 mM EDTA (pH 7.4) and homogenized with a Polytron for 20-30 sec at 12.000 rpm. The protein content of this homogenate was determined with the Bio-Rad (Bradford) Protein Assay (Biorad Laboratories GmbH, München, Germany) according to the instructions of the manufacturer using gamma globulin as the standard. This homogenate was stored at −80° C. in aliquots and thawed immediately prior to use.
(§2) Aliquots of membrane preparations were thawed at RT, resupended in assay buffer (D2, D3: 50 mM Tris-HCl, 120 mM NaCl, 5 mM MgCl2, 1 mM EDTA, 5 mM KCl, 1.5 mM CaCl2, pH=7.4; 5-HT2A: 50 mM Tris-HCl, 10 mM MgCl2, 1 mM EGTA, pH=7.4), homogenized with a Polytron for 20-30 sec at 12.000 rpm and adjusted to a final concentration of approximately 7.5 μg protein/well (D2, D3) and 15 μg protein/well (5-HT2A), respectively.
(§3) The binding affinity (Ki) of the compounds was determined using radioligand binding. […] The nonspecific binding was determined with equally composed reaction mixtures in the presence of 10 μM unlabelled spiperone. Per well 45 μl of Microscint 40 (Perkin Elmer, Schwerzenbach, Switzerland) was added, plates for sealed, shaken for 20 min and counted for 3 min on a Topcount Microplate Scintillation Counter (Canberra Packard SA, Zürich, Switzerland) with quenching correction.
(§4) The CPM value for each duplicate of a concentration of competing compound was averaged (y1), then the % specific binding was calculated according to the equation (((y1−non-specific)/(total binding-non-specific))×100). Graphs were plotted with the % specific binding using XLfit, a curve fitting program that iteratively plots the data using Levenburg Marquardt algorithm. The single site competition analysis equation used was y=A+((B−A)/(+((x/C)^D))), where y is the % specific binding, A is the minimum y, B is the maximum y, C is the IC50, x is the log10 of the concentration of the competing compound and D is the slope of the curve (the Hill Coefficient). […] The affinity constant (Ki) was calculated using the Cheng-Prusoff equation KI =(IC50/1+([L]/Kd), where [L] is the concentration of radioligand and Kd is the dissociation constant of the radioligand at the receptor as determined by the saturation isotherm.

Assay [2] addresses T2, human 5-HT2A serotonin receptor (Homo sapiens, UniProt P28223).
T2 construct: expressed in transfected cells; host or cells: HEK-293 EBNA cells (transient transfection), membrane preparation
The assay is described as follows: Radioligand binding, human 5-HT2A receptor ([3H]-ketanserin). The conditions noted are these: second value of the cell; membranes of transfected HEK-293 EBNA cells, 1.1 nM [3H]-ketanserin; read-out: Ki(nM) D3/5HT2A/D2: 5HT2A. How it is done: as §1, §2, §3, §4

For assay [3], the target named is T3, human D2 dopamine receptor (Homo sapiens, UniProt P14416).
T3 construct: expressed in transfected cells; host or cells: HEK-293 EBNA cells (transient transfection), membrane preparation
T3 sequence (P14416 whole entry): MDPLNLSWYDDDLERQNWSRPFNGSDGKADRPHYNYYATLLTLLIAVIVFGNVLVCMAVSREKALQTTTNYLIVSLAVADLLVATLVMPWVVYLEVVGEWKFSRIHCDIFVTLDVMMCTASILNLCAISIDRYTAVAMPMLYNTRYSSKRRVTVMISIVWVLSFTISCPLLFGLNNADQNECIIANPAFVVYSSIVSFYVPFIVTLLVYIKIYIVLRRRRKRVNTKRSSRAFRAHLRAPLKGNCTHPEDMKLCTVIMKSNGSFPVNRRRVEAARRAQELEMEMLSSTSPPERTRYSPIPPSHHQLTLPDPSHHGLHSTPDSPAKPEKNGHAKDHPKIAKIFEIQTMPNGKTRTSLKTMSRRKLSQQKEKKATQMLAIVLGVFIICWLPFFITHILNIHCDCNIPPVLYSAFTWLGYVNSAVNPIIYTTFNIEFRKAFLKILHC
Briefly: Radioligand binding, human D2 receptor ([3H]-spiperone). The conditions noted are these: third value of the cell; membranes of transfected HEK-293 EBNA cells, 0.7 nM [3H]-spiperone; read-out: Ki(nM) D3/5HT2A/D2: D2. How it is done: as §1, §2, §3, §4

T2 sequence (P28223 whole entry): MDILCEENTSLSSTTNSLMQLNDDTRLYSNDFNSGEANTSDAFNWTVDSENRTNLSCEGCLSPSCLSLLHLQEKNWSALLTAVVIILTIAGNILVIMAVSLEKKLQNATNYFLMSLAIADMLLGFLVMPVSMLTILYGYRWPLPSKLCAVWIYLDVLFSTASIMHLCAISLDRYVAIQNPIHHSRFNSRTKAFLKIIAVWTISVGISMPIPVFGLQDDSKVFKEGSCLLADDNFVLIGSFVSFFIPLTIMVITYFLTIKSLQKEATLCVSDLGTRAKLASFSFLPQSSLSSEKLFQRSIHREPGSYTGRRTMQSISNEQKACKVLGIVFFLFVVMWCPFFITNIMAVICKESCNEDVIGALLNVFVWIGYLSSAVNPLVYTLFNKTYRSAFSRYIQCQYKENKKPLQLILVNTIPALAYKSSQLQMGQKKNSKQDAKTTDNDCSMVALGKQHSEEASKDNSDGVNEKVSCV

For the molecule “1-(4-Ethoxy-phenyl)-3-{4-[4-(4-fluoro-benzoyl)-piperidin-1-yl]-butyl}-urea [Example 70]”, the values for the Ki in assay [1], in assay [2] and in assay [3] were 97 nM, 22 nM and 2710 nM, respectively.

Consider `O=C(NC[C@@H]1C[C@H]1CN1CCC(C(=O)c2ccc(F)cc2)CC1)Nc1ccc(Cl)cc1` (relative stereo) [Example 46, 1-(4-Chloro-phenyl)-3-{Trans-2-[4-(4-fluoro-benzoyl)-piperidin-1-ylmethyl]-cyclopropylmethyl}-urea], for which the figures for the Ki in assay [1], in assay [2] and in assay [3] were 15 nM, 2 nM and 30 nM, respectively.

As to `O=C(N[C@H]1CC[C@H](CCN2CCC(C(=O)c3ccc(F)cc3F)CC2)CC1)C1CCOC1` (relative stereo) [Example 61, Tetrahydro-furan-3-carboxylic acid trans (4-{2-[4-(2,4-difluoro-benzoyl)-piperidin-1-yl]-ethyl}-cyclohexyl)-amide], the Ki came out at 35 nM in assay [1], 64 nM in assay [2] and 2900 nM in assay [3].

For the molecule `O=C(N[C@H]1CC[C@H](CCN2CCC(C(=O)c3ccc(F)cc3)CC2)CC1)c1ccc(-n2cccc2)cc1` [Example 9], the Ki in assay [1] is 6 nM; in assay [2] it was 2 nM; in assay [3] it was 106 nM.

`CC(C)(C(=O)N[C@H]1CC[C@H](CCN2CCC(C(=O)c3ccc(F)cc3)CC2)CC1)c1ccc(Cl)cc1` [Example 14, 2-(4-Chloro-phenyl)-N-trans (4-{2-[4-(4-fluoro-benzoyl)-piperidin-1-yl]-ethyl}-cyclohexyl)-isobutyramide]: the Ki amounted to 144 nM in assay [1], 12 nM in assay [2] and 96 nM in assay [3].

On to `O=C(N[C@H]1CC[C@H](CCN2CCC(C(=O)c3ccc(F)cc3)CC2)CC1)c1ccnc2ncccc12` [Example 20, [1,8]Naphthyridine-4-carboxylic acid trans-(4-{2-[4-(4-fluoro-benzoyl)-piperidin-1-yl]-ethyl}-cyclohexyl)-amide], for which the values for the Ki in assay [1], in assay [2] and in assay [3] were 18 nM, 5 nM and 586 nM, respectively.

For the molecule `O=C(N[C@H]1CC[C@H](CCN2CCC(C(=O)c3ccc(F)cc3)CC2)CC1)c1ccc(Cl)cc1Cl` [Example 22, 2,4-Dichloro-N-trans (4-{2-[4-(4-fluoro-benzoyl)-piperidin-1-yl]-ethyl}-cyclohexyl)-benzamide], the Ki in assay [1] is 15 nM; in assay [2], 4 nM; in assay [3], 149 nM.

In the case of `O=C(N[C@H]1CC[C@H](CCN2CCC(C(=O)c3ccc(F)cc3)CC2)CC1)c1ccc(S(=O)(=O)c2ccc(Cl)cc2)cc1` [Example 23, 4-(4-Chloro-benzenesulfonyl)-N-trans (4-{2-[4-(4-fluoro-benzoyl)-piperidin-1-yl]-ethyl}-cyclohexyl)-benzamide], the Ki in assay [1] stood at 72 nM; in assay [2] it was 5 nM; in assay [3] it was 73 nM.

In the case of `CCOCCC(=O)N[C@H]1CC[C@H](CCN2CCC(C(=O)c3ccc(F)cc3)CC2)CC1` [Example 25, 3-Ethoxy-N-trans (4-{2-[4-(4-fluoro-benzoyl)-piperidin-1-yl]-ethyl}-cyclohexyl)-propionamide], the Ki was found to be 13 nM in assay [1], 269 nM in assay [2] and 777 nM in assay [3].

On to `O=C(CC(F)(F)F)N[C@H]1CC[C@H](CCN2CCC(C(=O)c3ccc(F)cc3)CC2)CC1` [Example 26, 3,3,3-Trifluoro-N-trans-(4-{2-[4-(4-fluoro-benzoyl)-piperidin-1-yl]-ethyl}-cyclohexyl)-propionamide], for which the Ki was determined as 17 nM in assay [1], 14 nM in assay [2] and 684 nM in assay [3].

For `O=C(N[C@H]1CC[C@H](CCN2CCC(C(=O)c3ccc(F)cc3)CC2)CC1)C1CCCCC1` [Example 29, Cyclohexanecarboxylic acid trans-(4-{2-[4-(4-fluoro-benzoyl)-piperidin-1-yl]-ethyl}-cyclohexyl)-amide], the Ki is 32 nM and 37 nM in assay [1]; 8 nM in assay [2]; 450 nM in assay [3].

Consider `O=C(N[C@H]1CC[C@H](CCN2CCC(C(=O)c3ccc(F)cc3)CC2)CC1)c1ccc(N2CCOCC2)nn1` [Example 30A25, 6-Morpholin-4-yl-pyridazine-3-carboxylic acid trans (4-{2-[4-(4-fluoro-benzoyl)-piperidin-1-yl]-ethyl}-cyclohexyl)-amide], for which the Ki in assay [1] was 26 nM; in assay [2] it was 5 nM; in assay [3] it was 1280 nM.

Regarding `O=C(CCOc1ccccc1)N[C@H]1CC[C@H](CCN2CCC(C(=O)c3ccc(F)cc3)CC2)CC1` [Example 30A27, N-trans (4-{2-[4-(4-Fluoro-benzoyl)-piperidin-1-yl]-ethyl}-cydohexyl)-3-phenoxy-propionamide], the Ki came to 8 nM in assay [1], 8 nM in assay [2] and 1120 nM in assay [3].

For the molecule `O=C(C#Cc1ccccc1)N[C@H]1CC[C@H](CCN2CCC(C(=O)c3ccc(F)cc3)CC2)CC1` [Example 30A28, 3-Phenyl-propynoic acid trans (4-{2-[4-(4-fluoro-benzoyl)-piperidin-1-yl]-ethyl}-cyclohexyl)-amide], the Ki worked out at 9 nM in assay [1], 5 nM in assay [2] and 470 nM in assay [3].

Turning to `CC(C)(CO)C(=O)N[C@H]1CC[C@H](CCN2CCC(C(=O)c3ccc(F)cc3)CC2)CC1` [Example 30A29, N-trans (4-{2-[4-(4-Fluoro-benzoyl)-piperidin-1-yl]-ethyl}-cyclohexyl)-3-hydroxy-2,2-dimethyl-propionamide], the values for the Ki in assay [1], in assay [2] and in assay [3] were 207 nM, 25 nM and 1010 nM, respectively.

`Cc1cc(CC(=O)N[C@H]2CC[C@H](CCN3CCC(C(=O)c4ccc(F)cc4)CC3)CC2)on1` [Example 30A36]: the Ki in assay [1] worked out at 26 nM; in assay [2], 5 nM; in assay [3], 1280 nM.

Turning to `COc1cc(CC(=O)N[C@H]2CC[C@H](CCN3CCC(C(=O)c4ccc(F)cc4)CC3)CC2)cc(OC)c1` [Example 30A37, 2-(3,5-Dimethoxy-phenyl)-N-trans (4-{2-[4-(4-fluoro-benzoyl)-piperidin-1-yl]-ethyl}-cyclohexyl)-acetamide], the Ki in assay [1] turned out to be 29 nM; in assay [2] it was 11 nM; in assay [3], 2000 nM.

`CC(=O)OCC(=O)N[C@H]1CC[C@H](CCN2CCC(C(=O)c3ccc(F)cc3)CC2)CC1` [Example 30A58, Acetic acid trans (4-{2-[4-(4-fluoro-benzoyl)-piperidin-1-yl]-ethyl}-cyclohexylcarbamoyl)-methyl ester]: the Ki in assay [1] was found to be 30 nM; in assay [2], 15 nM; in assay [3], 2070 nM.

For `O=C(c1ccc(F)cc1)C1CCN(CC[C@H]2CC[C@H](NC(=O)C3(O)CC3)CC2)CC1` [Example 30A59, 1-Hydroxy-cyclopropanecarboxylic acid (trans-4-{2-[4-(4-fluoro-benzoyl)-piperidin-1-yl]-ethyl}-cyclohexyl)-amide], the Ki came out at 19 nM in assay [1], 5 nM in assay [2] and 888 nM in assay [3].

Turning to `COC(=O)N[C@H]1CC[C@H](CCN2CCC(C(=O)c3ccc(F)cc3)CC2)CC1` [Example 30A64, Trans (4-{2-[4-(4-Fluoro-benzoyl)-piperidin-1-yl]-ethyl}-cyclohexyl)-carbamic acid methyl ester], the Ki is 19 nM in assay [1], 13 nM in assay [2] and 625 nM in assay [3].

Consider `O=C(N[C@H]1CC[C@H](CCN2CCC(O)(C(=O)c3ccccc3)CC2)CC1)c1ccnc2ccccc12` [Example 33, Quinoline-4-carboxylic acid trans-{4-[2-(4-benzoyl-4-hydroxy-piperidin-1-yl)-ethyl]-cyclohexyl}-amide], for which the Ki in assay [1] is 110 nM; in assay [2], 65 nM; in assay [3] it was 1980 nM.
